From patent US6444684B1 (priority 1993, dated 2002)
Where two headings read alike, the source gives them in different places.

Tests used:
[1] = tested on: K/1 = ras^K Transformed NRKE Cells; details: for Differential Index K/1: K/1 = ras^K transformed NRKE cells, compared with normal NRKE cells; for selective toxicity against ras^K oncogene bearing tumor cells as compared to the normal, non-transformed cells: LC50 NRKE divided by LC50 K/1
[2] = tested on: H/1.2 = ras^H Transformed NRKE Cells; details: for Differential Index H/1.2: H/1.2 = ras^H transformed NRKE cells, compared with normal NRKE cells
[3] = tested on: N/4.2-NRKE transformed by the human ras^N gene; details: for Differential Index N/4.2: N/4.2 = ras^N transformed NRK cells, compared with normal NRKE cells
[4] = tested on: 3LL = Lewis Lung Carcinoma Cells; details: 3LL = Lewis lung carcinoma cells, compared with normal NRKE cells
[5] = tested on: K/1 = ras^K Transformed NRKE Cells; test: cells; details: Rattus norvegicus, read-out: LC50 K/1
[6] = tested on: H/1.2 = ras^H Transformed NRKE Cells; test: cells; details: Rattus norvegicus, read-out: LC50 H/1.2
[7] = tested on: N/4.2-NRKE transformed by the human ras^N gene; test: cells; details: N42, read-out: LC50 N/4.2
[8] = tested on: 3LL = Lewis Lung Carcinoma Cells; test: cells; details: Mus musculus
in vitro = details: rat, LC50 NRKE
[9] = tested on: K/1-NRKE tumor (ras^K-transformed NRKE cells)
Leukemia cell lines = test: NCI in vitro anticancer screen (SRB), leukemia subpanel; details: for Activity (Average PG for highest dose tested) Leukemia: 48 hours exposure, average percent growth over the cell lines
Melanoma cell lines = test: NCI in vitro anticancer screen (SRB), melanoma subpanel; details: 48 hours exposure; average percent growth over the cell lines
CNS Cancer cell lines = test: NCI in vitro anticancer screen (SRB), CNS cancer subpanel; details: 48 hours exposure; average percent growth over the cell lines
Procedure: (§1) Compounds chosen for the program are initially tested in an in vitro anticancer screen. A total of fifty-five human tumor cell lines, derived from nine cancer types (lung, colon, melanoma, renal, ovarian, brain, prostate, breast and leukemia), are used in this screen. The tumor cells are inoculated over a series of standard 96-well microtiter plates on day 0. These cells are then preincubated on the microtiter plates for 24 hours. The test compounds are added to the wells in five 10-fold dilutions starting from the highest soluble concentration. Each compound is tested against every cell line in the panel. The compounds are incubated for 48 hours with the tumor cell lines. At the termination of the assay, the cells are fixed in situ, washed, and dried. Sulforhodamine B (SRB), a pink anionic dye that binds to the basic amino acids of trichloroacetic acid-fixed cells, is added. The cells are washed again, and the remaining dye is a function of the adherent cell mass. The bound stain is solubilized and measured spectrophotometrically. The data are entered from automatic reading devices into a computer for subsequent storage and analysis.
(§2) The measured effect of each test compound on the cell lines is calculated according to one or the other of the following two expressions:
(§3) If (Mean ODtest−Mean ODtzero)□0, then PG=100×(Mean ODtest−Mean ODtzero)/(Mean ODctrl−Mean ODtzero);
(§4) If (Mean ODtest−Mean ODtzero)<0, then PG=100×(Mean ODtest−Mean ODtzero)/Meantzero;
(§5) First, a data sheet is provided which lists, for each cell line, the Mean ODtzero, the Mean ODctrl, the Mean ODtest for each of the five concentrations, the calculated PGs for each concentration, and the response parameters G150, TGI, and LC50.
(§6) Third, mean graphs at each of the principal response parameters (GI50, TGI, and LC50) are provided. […] Since the bar scale is logarithmic, a bar two units to the right implies the compound achieved the response parameter (e.g., GI50) for the cell line at a concentration 1/100 the mean concentration required over all cell lines, and thus the cell line is unusually sensitive to that compound. Bars extending to the left correspondingly imply sensitivity less than the mean. Thus, the mean graphs facilitate visual scanning of data for potential patterns of selectivity for particular cell lines or for particular subpanels with respect to a selected response parameter.

Colon Cancer cell lines = test: NCI in vitro anticancer screen (SRB), colon cancer subpanel; details: 48 hours exposure; average percent growth over the cell lines
Procedure: as §1, §2, §3, §4

Renal Cancer cell lines = test: NCI in vitro anticancer screen (SRB), renal cancer subpanel; details: 48 hours exposure; average percent growth over the cell lines
Procedure: as §1, §2, §3, §4, §5, §6

Breast Cancer cell lines = test: NCI in vitro anticancer screen (SRB), breast cancer subpanel; details: 48 hours exposure; average percent growth over the cell lines
[10] = tested on: Ovarian Cancer cell lines; test: NCI in vitro anticancer screen (SRB), ovarian cancer subpanel; details: 48 hours exposure; average percent growth over the cell lines
Procedure: as §1, §2, §3, §4

[11] = tested on: Prostate Cancer cell lines; test: NCI in vitro anticancer screen (SRB), prostate cancer subpanel; details: 48 hours exposure; average percent growth over the cell lines
Procedure: as §1, §2, §3, §4

[12] = tested on: Non-Small Cell Lung Cancer cell lines; test: NCI in vitro anticancer screen (SRB), non-small cell lung cancer subpanel; details: 48 hours exposure; average percent growth over the cell lines
Procedure: as §1, §2, §3, §4, §5, §6

[13] = read-out: LC50 3LL, Table XV (Example 51)

Structure (SMILES)	Differential Index K/1 [1]	Differential Index H/1.2 [2]	Differential Index N/4.2 [3]	Differential Index 3LL [4]	CC50 [5] [µM]	CC50 [6] [µM]	CC50 [7] [µM]	CC50 [8, 13] [µM]	CC50 at 5 days (in vitro) [µM]	Activity (Average PG for highest dose tested) Leukemia (Leukemia cell lines)	Activity (Average PG for highest dose tested) Melanoma (Melanoma cell lines)	Activity (Average PG for highest dose tested) CNS Cancer (CNS Cancer cell lines)	Activity (Average PG for highest dose tested) Colon Cancer (Colon Cancer cell lines)	Activity (Average PG for highest dose tested) Renal Cancer (Renal Cancer cell lines)	Activity (Average PG for highest dose tested) Breast Cancer (Breast Cancer cell lines)	Activity (Average PG for highest dose tested) Ovarian Cancer [10]	Activity (Average PG for highest dose tested) Prostate Cancer [11]	Activity (Average PG for highest dose tested) Non-Small Cell Lung Cancer [12]	also measured
Cc1ccc2c(n1)C(=O)C(NC(=O)CCl)=CC2=O [Compound 28, 7-CHLOROACETAMIDO-2-METHYLQUINOLINE-5,8-DIONE]	0.48	1.1	0.9	1.4	6.6	2.8	3.4	2.3	3.2	–	–	–	–	–	–	–	–	–	–
CC(=O)NC1=CC(=O)c2ccc(-c3nc(C(=O)OCCC(C)C)cc4c3[nH]c3ccccc34)nc2C1=O [Compound 20]	–	–	–	–	–	–	–	–	–	−4.0%	−75.2%	−49.5%	−53.0%	−56.1%	−38.6%	−42.2%	−70.5%	−19.1%	selective toxicity against ras^K oncogene bearing tumor cells as compared to the normal, non-transformed cells [1]: 18 fold; tumor growth inhibition in vivo (in words) ([9]; mouse, in vivo): excellent tumor growth inhibition
CCCC(=O)NC1=CC(=O)c2ccc(C=O)nc2C1=O [Compound 26, 7-BUTYRAMIDO-2-FORMYLQUINOLINE-5,8-DIONE]	<0.9	0.9	<0.9	1.2	> 3.3	3.3	> 3.3	2.5	3	−10.8%	−79.0%	−61.0%	−17.9%	−93.0%	−35.0%	−63.2%	−81.5%	−50.9%	–
CC(=O)NC1=CC(=O)c2ccc(C=O)nc2C1=O [Compound 23, 7-ACETAMIDO-2-FORMYLQUINOLINE-5,8-DIONE]	0.4	0.9	0.7	1.35	12.5	5.5	7	3.7	–	–	–	–	–	–	–	–	–	–	CC50 ([5]; 120 h): 2.6 µM; CC50 ([6]; 120 h): 2.5 µM; CC50 ([8]; 120 h, read-out: LC50 3LL, Table VII, concentration giving 50% cell kill, 5 days exposure): 1.2 µM
CCCCCCCCOC(=O)c1cc2c([nH]c3ccccc32)c(-c2ccc3c(n2)C(=O)C(NC(C)=O)=CC3=O)n1 [Compound 21]	–	–	–	–	–	–	–	–	–	+20.3%	+58.6%	+59.3%	+62.3%	+67.5%	+62.9%	+47.0%	+69.5%	+13.0%	CC50 [1]: 0.25 µM; selective toxicity against ras^K oncogene bearing tumor cells as compared to the normal, non-transformed cells [1]: 132 fold; CC50 [2]: 7.6 µM; CC50 [3]: 9 µM; Number Dead Number Treated ([9]; 150 Mg/Kg/Day IP once daily for 8 days): 0/7; Number Dead Number Treated ([9]; 300 Mg/Kg/Day IP once daily for 8 days): 0/7; toxicity in tumor-bearing nude mice (in words) ([9]; even at doses up to 300 mg/kg/day): little or no toxicity; tumor growth inhibition in vivo (in words) ([9]; summary of Table X): excellent tumor growth inhibition
O=Cc1ccc2c(n1)C(=O)C(NC(=O)CCl)=CC2=O [Compound 24, 7-CHLOROACETAMIDO-2-FORMYLQUINOLINE-5,8-DIONE]	0.6	1.06	1.125	1.7	5.8	3.4	3.2	2.1	3.6	–	–	–	–	–	–	–	–	–	–
CCCC(=O)NC1=CC(=O)c2ccc(C)nc2C1=O [Compound 30, 7-BUTYRAMIDO-2-METHYLQUINOLINE-5,8-DIONE]	<0.6	0.7	<0.6	0.9	> 3.3	2.7	> 3.3	2.2	2	−21.7%	−85.1%	−93.8%	−66.6%	−92.0%	−62.7%	−86.7%	−79.0%	−71.1%	selectivity for leukemia (in words) (Leukemia cell lines; repeat cancer screen): showed selectivity for leukemia
